Read-outs that look alike come from different tables or passages of the source. Marks after values point to notes of the source that are not given here.
Target: T1, recombinant Axl tyrosine kinase (Homo sapiens, UniProt P30530)
T1 construct: encompassing amino acids 473 to 894 of Axl; GST (N); made in house; host or cells: SF126 insect cells
T1 sequence (P30530 473-894): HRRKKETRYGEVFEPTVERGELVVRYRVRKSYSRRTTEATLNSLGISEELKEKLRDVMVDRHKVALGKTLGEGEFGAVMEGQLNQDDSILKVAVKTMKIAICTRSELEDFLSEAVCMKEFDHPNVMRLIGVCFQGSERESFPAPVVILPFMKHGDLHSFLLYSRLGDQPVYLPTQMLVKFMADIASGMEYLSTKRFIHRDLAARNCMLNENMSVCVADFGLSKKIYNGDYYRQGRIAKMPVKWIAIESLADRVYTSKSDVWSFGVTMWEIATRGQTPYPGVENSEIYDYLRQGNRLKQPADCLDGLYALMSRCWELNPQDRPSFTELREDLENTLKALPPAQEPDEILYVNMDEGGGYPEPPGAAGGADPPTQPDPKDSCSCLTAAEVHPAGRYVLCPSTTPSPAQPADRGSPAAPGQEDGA
Assay: In vitro Axl kinase assay (AlphaScreen), Test (a)
Assay type: biochemical
Conditions: for % of Axl tyrosine kinase activity inhibited at a concentration of 30 μM: test compound at 30 μM

[1] = test compound at 1 μM, first value quoted
[2] = test compound at 1 μM, first value quoted, read-out: % Axl tyrosine kinase inhibition at 1 μM concentration

% Axl tyrosine kinase inhibition at 1 μM concentration [1] | Compound | further results
98.8% | CN(CCN1CCCC1)C(=O)c1ccc(-c2cnc(N)c(-c3nc4cccnc4o3)c2)cc1 [Example 45A.70] | 
96.7% | CN1CCC(NC(=O)c2ccc(-c3cnc(N)c(-c4nc5cccnc5o4)c3)cc2)CC1 [Example 45A.69] | 
95.3% | Nc1ncc(-c2ccc(OCC#CCN3CCS(=O)(=O)CC3)cc2)cc1-c1nc2ncccc2o1 [Example 43B.23] | 
99.1% | COc1cc(-c2cnc(N)c(-c3nc4ncccc4o3)c2)ccc1OCCCN1CC(C)NC(C)C1 (centres unmarked) [Example 43C.34] | 
99.9% | Nc1ncc(-c2cnn(CCCN3CCC[C@@H]3CO)c2)cc1-c1nc2ccccc2o1 [Example 31.2] | 
13.1***** % | Cc1ccc(S(=O)(=O)N2CCOCC2)cc1-c1cnc(N)c(-c2nc3cnccc3o2)c1 [Example 8A.10] | % of Axl tyrosine kinase activity inhibited at a concentration of 30 μM: *****the compound disclosed in Example 8A.10 inhibited 79.5% of Axl tyrosine kinase activity at a concentration of 30 μM.
95.2% | Nc1ncc(-c2cccc(CN3CCCCC3)c2)cc1-c1nc2cnccc2o1 [Example 8A.20] | 
99.7% | CN1CCC(n2cc(-c3cnc(N)c(-c4nc5cccc(F)c5o4)c3)cn2)CC1 [Example 41.10] | 
88.9% | Nc1ncc(-c2cnc3ccccc3c2)cc1-c1nc2ccccc2o1 [Example 2.24] | 
97.6% | CC(=O)Nc1cccc(-c2cnc(N)c(-c3nc4ccccc4o3)c2)c1 [Example 2.20] | 
99.3% | CC(C)(C)OC(=O)NCc1cccc(-c2cnc(N)c(-c3nc4ccncc4o3)c2)c1 [Example 11A.9] | 
99.6% | COc1cc(-c2cnc(N)c(-c3nc4ncccc4o3)c2)ccc1OC1CCCNC1 (centres unmarked) [Example 43C.26] | 
97.6% | Nc1ncc(-c2ccc(C(=O)N3CCC(CN4CCNCC4)CC3)cc2)cc1-c1nc2cccnc2o1 [Example 45A.98] | 
93.7% | Nc1ncc(-c2cccc(N3CCOCC3)c2)cc1-c1nc2ccncc2o1 [Example 11A.12] | 
88.4% | Nc1ncc(-c2cccc(CN3CCCCC3)c2)cc1-c1nc2ncccc2o1 [Example 10A.11] | 
98.9% | CN(C)C1CCCN(C(=O)c2ccc(-c3cnc(N)c(-c4nc5cccnc5o4)c3)cc2)C1 (centres unmarked) [Example 45A.20] | 
99.9% | CN(C)CCC(=O)N1CCC(n2cc(-c3cnc(N)c(-c4nc5ncccc5o4)c3)cn2)CC1 [Example 59.6] | 
89.9% | CN(C)CCC1CCN(C(=O)c2ccc(-c3cnc(N)c(-c4nc5cccnc5o4)c3)cc2)CC1 [Example 45A.14] | 
99.8% | CCN(CC)CCOc1ccc(-c2cnc(N)c(-c3nc4ncccc4o3)c2)cc1OC [Example 43C.4] | 
99.9% | Nc1ncc(-c2cnn(C3CCNC3)c2)cc1-c1nc2ccccc2o1 (centres unmarked) [Example 29.3] | 
96.4% | Nc1ncc(-c2ccc(C(=O)N3CCCCC3CN3CCOCC3)cc2)cc1-c1nc2cccnc2o1 (centres unmarked) [Example 45A.21] | 
80.3% | Nc1ncc(-c2cccc(C(=O)NC3CC3)c2)cc1-c1nc2ccncc2o1 [Example 11A.7] | 
99.7% | Cc1nn(C2CCN(C)CC2)cc1-c1cnc(N)c(-c2nc3cccnc3o2)c1 [Example 41.20] | 
 | Nc1ncc(-c2cnn(CCN3CCOCC3)c2)cc1-c1nc2ccccc2o1 [Example 26, 3-(1,3-benzoxazol-2-yl)-5-[1-(2-morpholinoethyl)pyrazol-4-yl]pyridin-2-amine] | inhibition at 1 µM [2]: 99.3%
99.5% | CN(C)CCCOc1ccc(-c2cnc(N)c(-c3nc4ccccc4o3)c2)cn1 [Example 2.26] | 
99.6% | N#CCc1cccc(-c2cnc(N)c(-c3nc4ccccc4o3)n2)c1 [Example 20.16] | 
97.8% | COc1cccc2oc(-c3cc(-c4cnn(C5CCNCC5)c4)cnc3N)nc12 [Example 38A.1] | 
 | COc1ccc2nc(-c3cc(-c4cnn(C5CCN(C)CC5)c4)cnc3N)oc2c1 [Example 35, 3-(6-methoxy-1,3-benzoxazol-2-yl)-5-[1-(1-methyl-4-piperidyl)pyrazol-4-yl]pyridin-2-amine] | inhibition at 1 µM [2]: 99.6%

% Axl tyrosine kinase inhibition at 1 μM concentration [1] | Compound | further results
99.9% | COc1cc(-c2cnc(N)c(-c3nc4ncccc4o3)c2)ccc1OC1CCNCC1 [Example 43C.29] | 
17.1* % | CN(C)S(=O)(=O)c1cccc(-c2cnc(N)c(-c3nc4ccccc4o3)c2)c1 [Example 2.39] | % of Axl tyrosine kinase activity inhibited at a concentration of 30 μM: *the compound disclosed in Example 2.39 inhibited 58.6% of Axl tyrosine kinase activity at a concentration of 30 μM.
98.3% | NCc1ccc(-c2cnc(N)c(-c3nc4cccnc4o3)c2)cc1 [Example 9A.13] | 
95.8% | Nc1ncc(-c2ccc(C(=O)N3CCC(C4CCNCC4)CC3)cc2)cc1-c1nc2cccnc2o1 [Example 45A.86] | 
98.0% | CS(=O)(=O)Nc1ccc(-c2cnc(N)c(-c3nc4ccccc4o3)c2)cc1 [Example 2.27] | 
99.4% | Nc1ncc(-c2cnn(C3CCN(C(=O)CO)CC3)c2)cc1-c1nc2ncccc2o1 [Example 57.2] | 
98.4% | Nc1ncc(-c2ccc(C(=O)NC3CCNC3)cc2)cc1-c1nc2cccnc2o1 (centres unmarked) [Example 45A.106] | 
25.0% | N#Cc1ccc(-c2cnc(N)c(-c3nc4ccccc4o3)c2)cc1 [Example 2.44] | 
81.9% | Nc1ncc(-c2cccc(C(=O)NCCN3CCOCC3)c2)cc1-c1nc2cccnc2o1 [Example 9A.22] | 
91.1% | Nc1ncc(-c2ccc(C(=O)N3CCC(O)CC3)cc2)cc1-c1nc2ncccc2o1 [Example 10A.13] | 
 | Nc1ncc(-c2cnn(C3CCNCC3)c2)cc1-c1nc2ncc(F)cc2o1 [Example 37, 3-(6-fluorooxazolo[4,5-b]pyridin-2-yl)-5-[1-(4-piperidyl)pyrazol-4-yl]pyridin-2-amine] | inhibition at 1 µM [2]: 98.4%
99.9% | Nc1ncc(-c2cnn(CCCN3CCCC3)c2)cc1-c1nc2ccccc2o1 [Example 27.2] | 
98.7% | NC(=O)c1ccc(-c2cnc(N)c(-c3nc4cnccc4o3)c2)cc1 [Example 8A.9] | 
4.2**** % | CN1CCN(c2cccc(-c3cnc(N)c(-c4nc5ccccc5o4)c3)c2)CC1 [Example 2.53] | % of Axl tyrosine kinase activity inhibited at a concentration of 30 μM: ****the compound disclosed in Example 2.53 inhibited 82% of Axl tyrosine kinase activity at a concentration of 30 μM.
95.8% | CN(C)C1CCC(NC(=O)c2ccc(-c3cnc(N)c(-c4nc5cccnc5o4)c3)cc2)CC1 (centres unmarked) [Example 45A.24] | 
99.1% | Nc1ncc(-c2ccc(C(=O)NCCCN3CCNCC3)cc2)cc1-c1nc2cccnc2o1 [Example 45A.101] | 
84.8% | Cc1nn(C2CCN(C)CC2)c(C)c1-c1cnc(N)c(-c2nc3ccccc3o2)c1 [Example 41.17] | 
99.6% | CCN(CC)CCOc1ccc(-c2cnc(N)c(-c3nc4ncccc4o3)c2)cc1 [Example 43B.3] | 
99.9% | CN1CCC(n2cc(-c3cnc(N)c(-c4nc5cc(F)ccc5o4)c3)cn2)CC1 [Example 7.1] | 
99.7% | CNC1CCN(C(=O)c2ccc(-c3cnc(N)c(-c4nc5cccnc5o4)c3)cc2)C1 (centres unmarked) [Example 45A.80] | 
100.0% | COc1cccc2nc(-c3cc(-c4cnn(C5CCN(C)CC5)c4)cnc3N)oc12 [Example 41.27] | 
96.9% | Nc1ncc(-c2ccc(C(=O)NCCCN3CCOCC3)cc2)cc1-c1nc2cccnc2o1 [Example 45A.57] | 
99.3% | COc1cc(-c2cnc(N)c(-c3nc4ncccc4o3)c2)ccc1OCCN [Example 43C.21] | 
99.1% | NCc1cccc(-c2cnc(N)c(-c3nc4ccccc4o3)c2)c1 [Example 2.4] | 
99.1% | COc1cc(-c2cnc(N)c(-c3nc4ncccc4o3)c2)ccc1OCCN1CCN(C)CC1 [Example 43C.7] | 
 | CC(C)(C)OC(=O)N1CCC(n2cc(-c3cnc(N)c(-c4nc5ccccc5s4)c3)cn2)CC1 [Example 13, tert-butyl 4-[4-[6-Amino-5-(1,3-benzothiazol-2-yl)-3-pyridyl]pyrazol-1-yl]piperidine-1-carboxylate] | inhibition at 1 µM (1 μM, mean calculated from a larger number of replicates than the first value, read-out: % Axl tyrosine kinase inhibition at 1 μM concentration (second value, †)): 99%; inhibition at 1 µM [2]: 95.4%
97.2% | COc1cc(-c2cnc(N)c(-c3nc4ncccc4o3)c2)ccc1OCCCN1CCN(S(C)(=O)=O)CC1 [Example 43C.15] | 
